Measured values taken from ChEMBL document CHEMBL4052713, “Bioactivity-guided isolation of chemical constituents against H2O2-induced neurotoxicity on PC12 from Cimicifuga dahurica (Turcz.) Maxim” (Bioorg Med Chem Lett, 2017).
Calls of active or inactive are those of the source. No cut-off for these calls is given here.

System: PC-12
Experiment: Neuroprotective activity in rat PC12 cells assessed as reduction in H2O2-induced cytotoxicity at 1 to 10 uM pre-incubated for 24 hrs followed by H2O2 exposure for 24 hrs by MTT assay
Type: functional, cell-based

SMILES | Activity
CCOC(=O)[C@](O)(Cc1ccc(O)cc1)[C@@H](O)C(=O)O | Active
CCOC(=O)[C@H](O)[C@@](O)(Cc1ccc(O)cc1)C(=O)O | Active
CCOC(=O)[C@@H](OC(=O)/C=C/c1ccc(O[C@@H]2O[C@H](CO)[C@@H](O)[C@@H](O)[C@H]2O)c(OC)c1)[C@@](O)(Cc1ccc(O)cc1)C(=O)O | Active
